Data published in PubChem BioAssay AID248 (DTP/NCI, 2004).
“And” between values parts separate entries of the source, which are not always exact repeats. Equal values may be shown once. Inconclusive results and toxic doses are left out.

System: L1210 leukemia ip in BDF1 mice, survival T/C
Test: NCI In Vivo Anticancer Drug Screen. Data for tumor model L1210 Leukemia (intraperitoneal) in B6D2F1 (BDF1) mice
Details: endpoint: mean survival time, higher = longer survival
Summary of the method: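 Ratio derived from survival: compound-dosed mice over vehicle-dosed mice, all bearing a transplantable tumor.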

Compound: CC(=O)OCC1OC(n2ncc(=O)[nH]c2=O)C(OC(C)=O)C1OC(C)=O (stereo unspecified)
- T/C (dose: 5.3 mg/kg/injection, schedule: Q01DX Z (oral), vehicle: carboxymethylcellulose (CMC)): 122 % of control
- T/C (dose: 8.0 mg/kg/injection, schedule: Q01DX Z (oral), vehicle: carboxymethylcellulose (CMC)): 119 % of control
- T/C (dose: 8.0 mg/kg/injection, schedule: Q03HX024 (ip), vehicle: other): 104 % of control
- T/C (dose: 8.0 mg/kg/injection, schedule: Q03HX024 (oral), vehicle: other): 117 % of control
- T/C (dose: 8.8 mg/kg/injection, schedule: Q01DX Z (ip), vehicle: carboxymethylcellulose (CMC)): 114 % of control
- T/C (dose: 10.0 mg/kg/injection, schedule: Q01DX Z (im), vehicle: carboxymethylcellulose (CMC)): 121 % of control
- T/C (dose: 11.66 mg/kg/injection, schedule: Q#B X Z (ip), vehicle: carboxymethylcellulose (CMC)): 111 % of control
- T/C (dose: 13.0 mg/kg/injection, schedule: Q01DX Z (ip), vehicle: carboxymethylcellulose (CMC)): 118 % of control
- T/C (dose: 15.0 mg/kg/injection, schedule: Q01DX Z (im), vehicle: carboxymethylcellulose (CMC)): 122 % of control
- T/C (dose: 15.0 mg/kg/injection, schedule: Q01DX Z (sc), vehicle: carboxymethylcellulose (CMC)): 116 % of control
- T/C (dose: 16.0 mg/kg/injection, schedule: Q03HX008 (ip), vehicle: other): 103 % of control
- T/C (dose: 16.0 mg/kg/injection, schedule: Q03HX016 (ip), vehicle: other): 105 % of control
- T/C (dose: 18.33 mg/kg/injection, schedule: Q#B X Z (ip), vehicle: carboxymethylcellulose (CMC)): 113 % of control
- T/C (dose: 20.0 mg/kg/injection, schedule: Q01DX Z (ip), vehicle: carboxymethylcellulose (CMC)): 120 % of control
- T/C (dose: 23.0 mg/kg/injection, schedule: Q01DX Z (im), vehicle: carboxymethylcellulose (CMC)): 121 % of control
- T/C (dose: 26.66 mg/kg/injection, schedule: Q#B X Z (ip), vehicle: carboxymethylcellulose (CMC)): 116 % of control
- T/C (dose: 31.0 mg/kg/injection, schedule: Q01DX Z (ip), vehicle: carboxymethylcellulose (CMC)): 120 % of control
- T/C (dose: 32.0 mg/kg/injection, schedule: Q03HX008 (ip), vehicle: other): 102 % of control
- T/C (dose: 32.0 mg/kg/injection, schedule: Q03HX016 (ip), vehicle: other): 103 % of control
- T/C (dose: 32.0 mg/kg/injection, schedule: Q03HX024 (ip), vehicle: other): 118 % of control
- T/C (dose: 32.0 mg/kg/injection, schedule: Q03HX024 (oral), vehicle: other): 122 % of control
- T/C (dose: 61.66 mg/kg/injection, schedule: Q#B X Z (ip), vehicle: carboxymethylcellulose (CMC)): 120 % of control
- T/C (dose: 62.0 mg/kg/injection, schedule: Q01DX Z (oral), vehicle: carboxymethylcellulose (CMC)): 157 % of control
- T/C (dose: 64.0 mg/kg/injection, schedule: Q03HX008 (ip), vehicle: other): 108 % of control
- T/C (dose: 64.0 mg/kg/injection, schedule: Q03HX016 (ip), vehicle: other): 103 % of control
- T/C (dose: 64.0 mg/kg/injection, schedule: Q04DX003 (ip), vehicle: other): 103 % of control
- T/C (dose: 64.0 mg/kg/injection, schedule: Q04DX003 (oral), vehicle: other): 109 % of control
- T/C (dose: 85.0 mg/kg/injection, schedule: Q01DX Z (im), vehicle: carboxymethylcellulose (CMC)): 122 % of control
- T/C (dose: 93.33 mg/kg/injection, schedule: Q#B X Z (ip), vehicle: carboxymethylcellulose (CMC)): 124 % of control and 86 % of control
- T/C (dose: 125.0 mg/kg/injection, schedule: Q01DX001 (ip), vehicle: carboxymethylcellulose (CMC)): 102 % of control and 107 % of control
- T/C (dose: 125.0 mg/kg/injection, schedule: Q01DX006 (iv), vehicle: carboxymethylcellulose (CMC)): 118 % of control
- T/C (dose: 125.0 mg/kg/injection, schedule: Q03DX Z (ip), vehicle: carboxymethylcellulose (CMC)): 121 % of control
- T/C (dose: 125.0 mg/kg/injection, schedule: Q07DX Z (ip), vehicle: carboxymethylcellulose (CMC)): 110 % of control
- T/C (dose: 128.0 mg/kg/injection, schedule: Q01DX001 (ip), vehicle: other): 105 % of control
- T/C (dose: 128.0 mg/kg/injection, schedule: Q03HX008 (ip), vehicle: other): 109 % of control
- T/C (dose: 128.0 mg/kg/injection, schedule: Q03HX016 (ip), vehicle: other): 119 % of control
- T/C (dose: 128.0 mg/kg/injection, schedule: Q04DX003 (ip), vehicle: other): 110 % of control
- T/C (dose: 128.0 mg/kg/injection, schedule: Q04DX003 (oral), vehicle: other): 101 % of control
- T/C (dose: 128.0 mg/kg/injection, schedule: Q08DX002 (ip), vehicle: other): 101 % of control
- T/C (dose: 166.66 mg/kg/injection, schedule: Q#B X Z (ip), vehicle: carboxymethylcellulose (CMC)): 157 % of control
- T/C (dose: 185.0 mg/kg/injection, schedule: Q01DX Z (sc), vehicle: carboxymethylcellulose (CMC)): 121 % of control
- T/C (dose: 250.0 mg/kg/injection, schedule: Q01DX001 (ip), vehicle: carboxymethylcellulose (CMC)): 100 % of control and 103 % of control
- T/C (dose: 250.0 mg/kg/injection, schedule: Q01DX Z (im), vehicle: carboxymethylcellulose (CMC)): 161 % of control
- T/C (dose: 250.0 mg/kg/injection, schedule: Q03DX Z (ip), vehicle: carboxymethylcellulose (CMC)): 122 % of control
- T/C (dose: 250.0 mg/kg/injection, schedule: Q07DX Z (ip), vehicle: carboxymethylcellulose (CMC)): 115 % of control
- T/C (dose: 256.0 mg/kg/injection, schedule: Q01DX001 (ip), vehicle: other): 97 % of control
- T/C (dose: 256.0 mg/kg/injection, schedule: Q04DX003 (ip), vehicle: other): 106 % of control
- T/C (dose: 256.0 mg/kg/injection, schedule: Q04DX003 (oral), vehicle: other): 120 % of control
- T/C (dose: 256.0 mg/kg/injection, schedule: Q08DX002 (ip), vehicle: other): 96 % of control
- T/C (dose: 280.0 mg/kg/injection, schedule: Q01DX Z (sc), vehicle: carboxymethylcellulose (CMC)): 151 % of control
- T/C (dose: 420.0 mg/kg/injection, schedule: Q01DX Z (sc), vehicle: carboxymethylcellulose (CMC)): 108 % of control
- T/C (dose: 450.0 mg/kg/injection, schedule: Q01DX010 (ip), vehicle: saline): 116 % of control
- T/C (dose: 500.0 mg/kg/injection, schedule: Q01DX001 (ip), vehicle: carboxymethylcellulose (CMC)): 102 % of control and 113 % of control
- T/C (dose: 500.0 mg/kg/injection, schedule: Q01DX Z (im), vehicle: carboxymethylcellulose (CMC)): 150 % of control
- T/C (dose: 500.0 mg/kg/injection, schedule: Q01DX Z (sc), vehicle: carboxymethylcellulose (CMC)): 154 % of control
- T/C (dose: 500.0 mg/kg/injection, schedule: Q03DX Z (ip), vehicle: carboxymethylcellulose (CMC)): 121 % of control
- T/C (dose: 500.0 mg/kg/injection, schedule: Q07DX Z (ip), vehicle: carboxymethylcellulose (CMC)): 113 % of control
- T/C (dose: 512.0 mg/kg/injection, schedule: Q01DX001 (ip), vehicle: other): 104 % of control
- T/C (dose: 512.0 mg/kg/injection, schedule: Q01DX009 (oral), vehicle: other): 151 % of control
- T/C (dose: 512.0 mg/kg/injection, schedule: Q04DX003 (ip), vehicle: other): 106 % of control
- T/C (dose: 512.0 mg/kg/injection, schedule: Q08DX002 (ip), vehicle: other): 105 % of control
- T/C (dose: 675.0 mg/kg/injection, schedule: Q01DX010 (ip), vehicle: saline): 93 % of control
- T/C (dose: 1000.0 mg/kg/injection, schedule: Q01DX001 (ip), vehicle: carboxymethylcellulose (CMC)): 97 % of control and 122 % of control
- T/C (dose: 1000.0 mg/kg/injection, schedule: Q01DX Z (im), vehicle: carboxymethylcellulose (CMC)): 158 % of control
- T/C (dose: 1000.0 mg/kg/injection, schedule: Q01DX Z (ip), vehicle: carboxymethylcellulose (CMC)): 102 % of control
- T/C (dose: 1000.0 mg/kg/injection, schedule: Q01DX Z (oral), vehicle: carboxymethylcellulose (CMC)): 86 % of control
- T/C (dose: 1000.0 mg/kg/injection, schedule: Q01DX Z (sc), vehicle: carboxymethylcellulose (CMC)): 117 % of control
- T/C (dose: 1000.0 mg/kg/injection, schedule: Q07DX Z (ip), vehicle: carboxymethylcellulose (CMC)): 113 % of control
- T/C (dose: 1014.0 mg/kg/injection, schedule: Q01DX010 (ip), vehicle: saline): 100 % of control
- T/C (dose: 1024.0 mg/kg/injection, schedule: Q01DX001 (ip), vehicle: other): 101 % of control
- T/C (dose: 1024.0 mg/kg/injection, schedule: Q08DX002 (ip), vehicle: other): 106 % of control
